Data as given in US20260007687A1, “A[…] EMULSION INJECTION AND METHOD FOR PREPARING SAME” (JIANGSU NHWA PHARMACEUTICAL CO., LTD, priority 2022, published 2026).

Legend:
[1] = ED50 of alphaxalone (basis of the dose in the histamine test); details: in vivo
[2] = tested on: histamine content in mouse plasma; assay: Mouse histamine release: plasma histamine content (ELISA) 30 min after intravenous injection; details: mice
Method: Overall test method: the corresponding solution or formulation was prepared. Administration was performed by intravenous injection, and blood was collected 30 min after administration. After anticoagulation with EDTA, the blood was centrifuged to collect the plasma, and the histamine content in mouse plasma was measured with an ELISA kit.
Blank plasma: blood was directly collected from mice and centrifuged.
Normal saline: normal saline was injected at an administration volume of 5 mL/kg.
Blank fat emulsion (20% medium-long-chain fat emulsion): the administration volume was 5 mL/kg.
SBE-β-CD: the preparation method was: 0.7 mL of 13% SBE-β-CD+4.3 mL of normal saline, and the administration volume was 5 mL/kg. […] Cremophor EL: 0.7 mL of Cremophor EL+4.3 mL of normal saline, the concentration of Cremophor EL was 0.14 mL/mL, the dose was 5 mL/kg, and the dose of Cremophor EL was 0.7 mL/kg.
SBE-β-CD & Cremophor EL: 0.7 mL of 13% SBE-β-CD+0.7 mL of Cremophor EL+3.6 mL of normal saline, and the administration volume was 5 mL/kg.
The administration volume was 3.5 mL/kg, the dose was 7 mg/kg; the administration amount of castor oil was 0.245 mL/kg.

[3] = background statement; cited from earlier work

Molecule: CC(=O)[C@H]1CC[C@H]2[C@@H]3CC[C@H]4C[C@H](O)CC[C@]4(C)[C@H]3C(=O)C[C@]12C [alphaxalone]
- ED50 of alphaxalone [1]: about 3.5 mg/kg

Molecule: sulfobutyl-β-cyclodextrin [SBE-β-CD]
- Plasma histamine concentration [2]: 15.28 ± 2.33 ng/mL

Molecule: C[C@]12CC[C@@H](O)C[C@@H]1CC[C@H]1[C@@H]3CC[C@H](C(=O)CO)[C@@]3(C)CC(=O)[C@@H]12 [alphadolone]
- potency of alphadolone relative to alphaxalone [3]: half
